From patent US20240150389A1, “MODIFIED GUANINES” (NUCLERA NUCLEICS LTD, priority 2021, published 2024)

How the values were obtained:
TdT = experiment: Enzymatic DNA synthesis reactions (N+20 nucleotide additions with TdT, analysed by next-generation sequencing); type: biochemical
Protocol: Enzymatic N+20 nucleotide addition reactions were conducted on polymer-coated silica paramagnetic particles. Enzymatic DNA synthesis was performed on a ThermoFisher KingFisher sample purification system. Enzymatic DNA synthesis consists of cycles of addition solution (containing TdT, reversibly terminated nucleotide and a near-neutral extension solution comprising one or more buffers (e.g., Tris or cacodylate), one or more salts (e.g., Na^+, K^+, Mg^2+, Mn^2+, Cu^2+, Zn^2+, Co^2+, etc. all with appropriate counterions, such as Cl^−) and inorganic pyrophosphatase (e.g., the Saccharomyces cerevisiae homolog)), wash 1 solution (HEPES+5 mM EDTA at pH 8.00), deblock solution (sodium nitrite at pH 5.5), and wash 2 solution (HEPES at pH 7.20). The following sequences […] (Oligo A) and […] (Oligo B) were synthesized in triplicate. DNA products were analysed by next-generation sequencing on an Illumina MiniSeq. Data showing the percent perfect sequences are shown in the following plots for synthesis of these sequences with reversibly terminated dG and reversibly terminated 8-aza-dG; other nucleotides are reversibly terminated dA, dC or dT.

[1] = Stability tests of modified 2′-deoxyguanosines in NDS buffer vs. 2′-deoxyguanosine (nitrite-mediated deamination); type: physicochemical; conditions: for stability in NDS compared with 2′-deoxyguanosine: nitrite deprotection solution (sodium nitrite in 1M sodium acetate, pH 5.5), room temperature, over 4 days, HPLC or LC/MS
Protocol: Stability Tests of Modified 2′-Deoxyguanosines in NDS Buffer vs. 2′-Deoxyguanosine
Nitrite deprotection solution (NDS) was prepared from sodium nitrite (380 mg, 5.5 mmol) and 1M pH 5.5 sodium acetate (7.868 mL) and adjusted to pH 5.5 with 10M sodium hydroxide. Samples of nucleoside (˜0.5 mg) were dissolved in 1 mL aliquots of this buffer. The samples were analysed by HPLC or LC/MS using Method 1 or Method 2 immediately after making up the samples and at intervals over 4 days while stored at room temperature alongside reference samples of 2′-deoxyguanosine. 2′-Deoxyguanosine gave an approximately 8:1 mixture of 2′-deoxyxanthosine and Peak (3) with the same mass as 2′-deoxyxanthosine. 7-Deaza-2′-deoxyguanosine gave 7-deaza-2′-deoxyxanthosine as one component of a complex mixture of products. Other nucleosides gave products with masses corresponding to the products of substitution of NH2 with OH (increase of 1 Da) assigned to the 2′-deoxyxanthosine analogues. Data for 7-deaza-2′-deoxyguanosine (X=CH, Y=CH), 7-deaza-7-trifluoromethyl-2′-deoxyguanosine (X=CCF3, Y=CH), 7-deaza-7-cyano-2′-deoxyguanosine, 7-deaza-7-methanesulfonyl-2′-deoxyguanosine (X=CSO2Me, Y=CH) and 8-aza-2′-deoxyguanosine (X=N, Y=N) for experiments run in parallel with 2′-deoxyguanosine (X=CH, Y=N) are shown in the plots below.

3′-(O)-Acetoxime-8-Aza-2′-Deoxyguanosine 5′-Triphosphate [reversibly terminated 8-aza-dG]
efficiency of additions of any nucleotide to 8-aza-dG terminated sequences compared with dG terminated sequences (TdT; TdT addition, Oligo A and Oligo B): less efficient | percent perfect sequences compared with products made with dG (TdT; synthesis of Oligo A and Oligo B in triplicate, Illumina MiniSeq): lower level of percent perfect sequences

CS(=O)(=O)c1cn(C2CC(O)C(CO)O2)c2nc(N)[nH]c(=O)c12 (stereo not shown) [7-(MethanesulfonyI)-7-Deaza-2′-Deoxyguanosine]
stability in NDS compared with 2′-deoxyguanosine [1]: slightly more stable

Nc1nc2c(ccn2[C@H]2C[C@H](O)[C@@H](CO)O2)c(=O)[nH]1 [7-Deaza-2′-deoxyguanosine, reference compound]
stability in NDS compared with 2′-deoxyguanosine [1]: much less stable

Nc1nc2c(c(C(F)(F)F)cn2[C@H]2C[C@H](O)[C@@H](CO)O2)c(=O)[nH]1 [7-Deaza-7-Trifluoromethyl-2′-Deoxyguanosine]
stability in NDS compared with 2′-deoxyguanosine [1]: slightly more stable

N#Cc1cn([C@H]2C[C@H](O)[C@@H](CO)O2)c2nc(N)[nH]c(=O)c12 [7-deaza-7-cyano-2′-deoxyguanosine, 7-Deaza-7-Cyano-2′-Deoxyguanosine]
stability in NDS compared with 2′-deoxyguanosine [1]: slightly more stable

Nc1nc2c(nnn2[C@H]2C[C@H](O)[C@@H](CO)O2)c(=O)[nH]1 [8-Aza-2′-deoxyguanosine]
factor by which more stable in NDS than 2′-deoxyguanosine ([1]; nitrite deprotection solution pH 5.5, room temperature, run in parallel with 2′-deoxyguanosine): 4.2
